Measurements as given in patent US4539326A, “5-Oxo-5H-(1)benzopyrano(2,3-b)pyridine derivatives, their production and use as anti-inflammatory agents” (Takeda Chemical Industries, Ltd., priority 1982, dated 1985).

Columns and labels:
adjuvant arthritis = assay: Action of inhibiting adjuvant arthritis (M. butyricum adjuvant, oral, 14 days); format: in vivo, male Sprague-Dawley rats (6-week old); settings: for Systemic inflammation score / Increase in body weight / Weight of thymus: 50 mg/kg oral once a day; for Systemic inflammation score: max score 20; for Increase in body weight / Weight of thymus: day 14; for Restraint of the increase in body weight (result in words) / Systemic inflammation score (result in words) / Weight of thymus (result in words): oral once a day for 14 days, compared with control group
Experimental: As experimental animal, male Sprague-Dawley rats (6-week old) were used.
(§1) Adjuvant arthritis was induced by suspending killed cells of mycobacteria (M. butyricum strain) in liquid paraffin and injecting the rats with the resultant suspension beneath the skin of the hind-paw. The suspension obtained by suspending 70 mg of the test specimen [disodium(7-ethyl-3-carboxylato-5-oxo-5H-[1]benzopyrano[2,3-b]pyridin-2-yl)acetate] in 7 ml of 4% gum arabic was administered orally to rats once a day at a rate of 0.5 ml per 100 g of body weight for the consecutive 14 days after the injection of adjuvant. The degrees or severities of the inflammations induced on the other hind paw not injected with adjuvant, front paws, tail and ears were graded 1 to 5, and the grades were summed up for each animal, with the highest mark in total for the four body spots being 20. In addition, effects exerted by the administration on the increase in body weight (difference between the body weights measured after 14 days and on the day of sensitization) and the weight of thymus were investigated, and were compared with those obtained with the control group.
as §1, with “in liquid paraffine and injecting” for “in liquid paraffin and injecting”, “skin of hind-paw. The” for “skin of the hind-paw. The”, “test specimen [ethyl(7-ethyl-3-ethoxycarbonyl-5-oxo-5H-[1]benzopyrano[2,3-b]pyridin-2-yl)acetate] in 7” for “test specimen [disodium(7-ethyl-3-carboxylato-5-oxo-5H-[1]benzopyrano[2,3-b]pyridin-2-yl)acetate] in 7”

[1] = test system: carrageenin-induced edema; assay: rat carrageenin-induced edema method (antiinflammatory activity); format: in vivo
phenylquinone writhing = assay: mouse phenylquinone writhing method (analgesic activity); format: in vivo

SMILES | Systemic inflammation score (adjuvant arthritis; Experiment 2 (Table 2), day 12 after sensitization, control 6.7 ± 0.8, ** P <0.01) | Increase in body weight (adjuvant arthritis; Experiment 2 (Table 2), control 42.5 ± 3.2) [g] | Weight of thymus (adjuvant arthritis; Experiment 2 (Table 2), control 286.5 ± 34.3) [mg] | Systemic inflammation score (adjuvant arthritis; Experiment 2 (Table 2), day 14 after sensitization, control 8.0 ± 0.5, ** P <0.01) | Restraint of the increase in body weight (result in words) (adjuvant arthritis) | Systemic inflammation score (result in words) (adjuvant arthritis) | Weight of thymus (result in words) (adjuvant arthritis) | Systemic inflammation score (adjuvant arthritis; Experiment 1 (Table 1), day 12 after sensitization, control 7.0 ± 0.9, * P <0.05) | Increase in body weight (adjuvant arthritis; Experiment 1 (Table 1), control 42.2 ± 2.5) [g] | Weight of thymus (adjuvant arthritis; Experiment 1 (Table 1), control 211.7 ± 21.5, * P <0.05) [mg] | Systemic inflammation score (adjuvant arthritis; Experiment 1 (Table 1), day 14 after sensitization, control 8.8 ± 0.7, * P <0.05) | Antiinflammatory activity [1] | Analgesic activity (phenylquinone writhing)
CCOC(=O)Cc1nc2oc3ccc(CC)cc3c(=O)c2cc1C(=O)OCC [ethyl(7-ethyl-3-ethoxycarbonyl-5-oxo-5H-[1]benzopyrano[2,3-b]pyridin-2-yl)acetate] | 3.3 ± 0.7 | 43.3 ± 8.6 | 444.2 ± 69.9 | 4.0 ± 1.0 | improve the systemic inflammation score and the restraint of the increase in body weight | improve the systemic inflammation score | tendency to increase the weight of thymus |  |  |  |  |  | 
CCc1ccc2oc3nc(CC(=O)O)c(C(=O)O)cc3c(=O)c2c1 [disodium(7-ethyl-3-carboxylato-5-oxo-5H-[1]benzopyrano[2,3-b]pyridin-2-yl)acetate] |  |  |  |  | improve the systemic inflammation score and the restraint of the increase in body weight | improve the systemic inflammation score | increase the weight of thymus | 3.7 ± 1.1 | 50.0 ± 3.1 | 375 ± 52.0 | 4.7 ± 1.6 | neither to exhibit the antiinflammatory activity | neither to exhibit the antiinflammatory activity in the rat carrageenin-induced edema method and the analgesic activity
